{"source": "PubChem BioAssay AID1208", "about": "(EPA DSSTox, 2008)", "note": "The source made the active and inactive calls.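 Rule for the calls: active = at least one rat sex group has a carcinogenic potency value and tumor site recorded; inconclusive = only rat studies were judged inadequate by the national testing program; inactive = no potency or tumor site, with negative rat experiments.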", "data": [{"test_system": "rat chronic carcinogenicity bioassay, TD50", "assay": "DSSTox (CPDBAS) Carcinogenic Potency Database Summary Rat Bioassay Results", "conditions": "TD50_Rat_Note: no positive results; TargetSites_Rat_Female: no positive results", "method_in_brief": "(§1)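 The activity score maps log10(1/TD50_Rat_mmol) linearly onto 1–100; actives without a computed TD50, such as mixtures, receive 50. Source data are chronic rat carcinogenicity tests, using the most positive experiment for each sex.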", "values": [{"smiles": "FC(F)Cl", "outcome": "inactive; no positive results"}, {"smiles": "Cl", "outcome": "inactive; no positive results"}, {"smiles": "CCCCCCc1ccc(O)cc1O", "outcome": "inactive; no positive results"}, {"smiles": "CCCCCCCCS(=O)C(C)Cc1ccc2c(c1)OCO2", "note": "(configuration not stated)", "outcome": "inactive; no positive results"}, {"smiles": "C=CC=O", "outcome": "inactive; no positive results"}, {"smiles": "CC1=C(C(=O)OCCN(Cc2ccccc2)c2ccccc2)C(c2cccc([N+](=O)[O-])c2)C(P2(=O)OCC(C)(C)CO2)=C(C)N1", "note": "(configuration not stated)", "outcome": "inactive; no positive results"}, {"smiles": "O.O.O.O.O.O.O=S(=O)([O-])[O-].[Ni+2]", "outcome": "inactive; no positive results"}, {"smiles": "C=CC(=O)NCO", "outcome": "inactive; no positive results"}, {"smiles": "[O-][Cl+]O", "outcome": "inactive; no positive results"}, {"smiles": "Cc1c(-c2cnccn2)ssc1=S", "outcome": "inactive; no positive results"}, {"smiles": "Oc1c(Cl)c(Cl)c(Cl)c(Cl)c1Cl", "outcome": "inactive; no positive results"}, {"smiles": "CCOP(=S)(OCC)Oc1cc(C)nc(C(C)C)n1", "outcome": "inactive; no positive results"}, {"smiles": "CCCNC(=O)NS(=O)(=O)c1ccc(Cl)cc1", "outcome": "inactive; no positive results"}, {"smiles": "O=C1c2ccccc2-c2ccc3c4c(ccc1c24)-c1ccccc1C3=O", "outcome": "inactive; no positive results"}, {"smiles": "N[C@@H](CS)C(=O)O", "outcome": "inactive; no positive results"}, {"smiles": "O=[N+]([O-])c1ccc(NCCO)c(OCCO)c1", "outcome": "inactive; no positive results"}, {"smiles": "CCCCC(C)(O)C/C=C/[C@H]1[C@H](O)CC(=O)[C@@H]1CCCCCCC(=O)OC", "note": "(some centres not stated)", "outcome": "inactive; no positive results"}, {"smiles": "O=C(O)COc1cc(Cl)c(Cl)cc1Cl", "outcome": "inactive; no positive results"}, {"smiles": "ClCC(Cl)Cl", "outcome": "inactive; no positive results"}, {"smiles": "CC(C)(C)c1cc(CO)cc(C(C)(C)C)c1O", "outcome": "inactive; no positive results"}, {"smiles": "CCCN(CCC)S(=O)(=O)c1ccc(C(=O)O)cc1", "outcome": "inactive; no positive results"}, {"smiles": "COP(=O)(OC)OC", "outcome": "inactive; no positive results"}, {"smiles": "NC(=S)C(N)=S", "outcome": "inactive"}, {"smiles": "O=c1[nH]c(=O)n(C2CCCO2)cc1F", "note": "(configuration not stated)", "outcome": "inactive; no positive results"}, {"smiles": "CCOP(=S)(OCC)Oc1nc(Cl)c(Cl)cc1Cl", "outcome": "inactive; no positive results"}, {"smiles": "CC(O)CO", "note": "(configuration not stated)", "outcome": "inactive; no positive results"}, {"smiles": "O=C(NCC1CCCCN1)c1cc(OCC(F)(F)F)ccc1OCC(F)(F)F", "note": "(configuration not stated)", "outcome": "inactive; no positive results"}, {"smiles": "O=[N+]([O-])O", "outcome": "inactive; no positive results"}, {"smiles": "O=c1ccc(=O)[nH][nH]1", "outcome": "inactive; no positive results"}]}, {"test_system": "rat chronic carcinogenicity bioassay, TD50", "assay": "DSSTox (CPDBAS) Carcinogenic Potency Database Summary Rat Bioassay Results", "conditions": "TD50_Rat_Note: positive test results only by intraperitoneal or intravenous injection; TD50 is harmonic mean of more than one positive; TargetSites_Rat_Female: peritoneal cavity; hits give low values", "method_in_brief": "as §1", "units": {"Potency": "mg/kg/day"}, "values": [{"smiles": "CO[C@@]12[C@H](COC(N)=O)C3=C(C(=O)C(C)=C(N)C3=O)N1C[C@@H]1N[C@@H]12", "Potency": 0.00102}]}, {"test_system": "rat chronic carcinogenicity bioassay, TD50", "assay": "DSSTox (CPDBAS) Carcinogenic Potency Database Summary Rat Bioassay Results", "conditions": "TD50_Rat_Note: positive test results only by intraperitoneal or intravenous injection; hits give low values", "method_in_brief": "as §1", "units": {"Potency": "mg/kg/day"}, "values": [{"smiles": "O=NN1CCCN(N=O)C1", "Potency": 0.166}]}, {"test_system": "rat chronic carcinogenicity bioassay, TD50", "assay": "DSSTox (CPDBAS) Carcinogenic Potency Database Summary Rat Bioassay Results", "conditions": "TargetSites_Rat_BothSexes: all tumor bearing animals; hits give low values", "method_in_brief": "as §1", "units": {"Potency": "mg/kg/day"}, "values": [{"smiles": "O=S(=O)(O)c1cc(S(=O)(=O)O)c2c(N=Nc3ccc(S(=O)(=O)O)c4ccccc34)c(O)ccc2c1", "Potency": 24500}]}, {"test_system": "rat chronic carcinogenicity bioassay, TD50", "assay": "DSSTox (CPDBAS) Carcinogenic Potency Database Summary Rat Bioassay Results", "conditions": "TargetSites_Rat_Female: liver; hits give low values", "method_in_brief": "as §1", "units": {"Potency": "mg/kg/day"}, "values": [{"smiles": "Oc1c(Cl)c(Cl)c(Cl)c(Cl)c1Cl", "Potency": 13.1}]}, {"test_system": "rat chronic carcinogenicity bioassay, TD50", "assay": "DSSTox (CPDBAS) Carcinogenic Potency Database Summary Rat Bioassay Results", "conditions": "TargetSites_Rat_Female: mammary gland; hits give low values", "method_in_brief": "as §1", "units": {"Potency": "mg/kg/day"}, "values": [{"smiles": "C=Cc1ccccc1", "Potency": 23.3}, {"smiles": "Cc1csc(NNC=O)n1", "Potency": 14.4}]}, {"test_system": "rat chronic carcinogenicity bioassay, TD50", "assay": "DSSTox (CPDBAS) Carcinogenic Potency Database Summary Rat Bioassay Results", "conditions": "TargetSites_Rat_Female: no positive results; hits give low values", "method_in_brief": "as §1", "units": {"Potency": "mg/kg/day"}, "values": [{"smiles": "CC(C)=NO", "Potency": 12.1}, {"smiles": "Cc1cc(N=Nc2c(O)ccc3ccccc23)c(S(=O)(=O)O)cc1Cl", "Potency": 146}, {"smiles": "Oc1c(Cl)c(Cl)c(Cl)c(Cl)c1Cl", "Potency": 59}, {"smiles": "CC(I)C1OCC(CO)O1", "note": "(configuration not stated)", "Potency": 101}]}, {"test_system": "rat chronic carcinogenicity bioassay, TD50", "assay": "DSSTox (CPDBAS) Carcinogenic Potency Database Summary Rat Bioassay Results", "conditions": "TargetSites_Rat_Female: stomach; hits give low values", "method_in_brief": "as §1", "units": {"Potency": "mg/kg/day"}, "values": [{"smiles": "CN(C#N)N=O", "Potency": 0.48}]}, {"test_system": "rat chronic carcinogenicity bioassay, TD50", "assay": "DSSTox (CPDBAS) Carcinogenic Potency Database Summary Rat Bioassay Results", "conditions": "TargetSites_Rat_Female: urinary bladder; TargetSites_Rat_BothSexes: no positive results; hits give low values", "method_in_brief": "as §1", "units": {"Potency": "mg/kg/day"}, "values": [{"smiles": "Nc1ccc2ccccc2c1", "Potency": 61.6}]}, {"test_system": "rat chronic carcinogenicity bioassay, TD50", "assay": "DSSTox (CPDBAS) Carcinogenic Potency Database Summary Rat Bioassay Results", "conditions": "hits give low values", "method_in_brief": "as §1", "units": {"Potency": "mg/kg/day"}, "values": [{"smiles": "CC(=O)Nc1ccc(-c2ccc(F)cc2)cc1", "Potency": 1.01}, {"smiles": "O=C1c2cccc(O)c2C(=O)c2c(O)cccc21", "Potency": 245}, {"smiles": "CC(C)Oc1ccccc1OC(=O)N(C)N=O", "Potency": 0.364}, {"smiles": "CC1CN1P(=O)(N1CC1C)N1CC1C", "note": "(configuration not stated)", "Potency": 4.46}, {"smiles": "O=[N+]([O-])c1ccc(-c2nc(N(CCO)CCO)c3ccccc3n2)s1", "Potency": 3.14}, {"smiles": "CN(CCCC(=O)O)N=O", "Potency": 0.982}]}]}
